Source: patent US20170073337A1, “DIHYDROTHIAZINE AND DIHYDROOXAZINE DERIVATIVES HAVING BACE1 INHIBITORY ACTIVITY” (Shionogi & Co., Ltd., priority 2014, published 2017)
≈ marks a conversion by molar mass, not a printed value. Like-named read-outs stand apart in the source and are kept apart here.

Assays:
[1] = Metabolic stability test; type: in vitro ADME; details: human liver microsomes, 37° C., 30 minutes, NADPH
In short: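 Parent compound was measured by LC/MS/MS or SPE/MS after a methanol/acetonitrile quench and reported as % remaining, with the 0 min sample set to 100%. Incubations ran 30 min at 37 °C in pH 7.4 Tris buffer containing pooled human liver microsomes at 0.5 mg protein/mL and 1 mmol/L NADPH.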

[2] = Solubility test; type: physicochemical
In short: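 Dissolved concentration determined by LC/MS or SPE/MS (absolute calibration) in diluted filtrates, after 2 μL of 10 mmol/L DMSO stock was added to 198 μL JP 1st or JP 2nd fluid and equilibrated either 1 h with shaking at room temperature or 16 h standing at 25 °C.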

[3] = molecular target: T1, CYP1A2 (Homo sapiens, UniProt P05177); test: CYP inhibition test (CYP1A2); type: in vitro ADME; details: pooled human liver microsomes; 7-ethoxyresorufin O-deethylation
T1 construct: The commercially available pooled human liver microsomes are used as an enzyme resource; from tissue; host or cells: pooled human liver microsomes
T1 sequence (P05177 1-516): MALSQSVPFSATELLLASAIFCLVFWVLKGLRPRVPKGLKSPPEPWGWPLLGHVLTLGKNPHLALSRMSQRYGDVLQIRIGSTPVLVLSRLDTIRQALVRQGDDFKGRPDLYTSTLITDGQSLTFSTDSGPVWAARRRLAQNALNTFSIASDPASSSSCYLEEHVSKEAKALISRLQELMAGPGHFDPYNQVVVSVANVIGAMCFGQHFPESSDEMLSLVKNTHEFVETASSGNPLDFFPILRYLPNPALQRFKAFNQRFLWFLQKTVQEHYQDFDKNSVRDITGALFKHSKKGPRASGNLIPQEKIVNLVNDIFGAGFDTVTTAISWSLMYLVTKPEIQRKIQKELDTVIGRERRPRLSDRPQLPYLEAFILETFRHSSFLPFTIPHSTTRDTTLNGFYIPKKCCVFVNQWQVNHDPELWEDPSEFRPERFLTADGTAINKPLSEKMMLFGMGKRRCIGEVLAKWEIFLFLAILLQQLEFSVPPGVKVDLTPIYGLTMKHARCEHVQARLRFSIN
In short: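 Inhibition of CYP1A2 was measured in commercially available pooled human liver microsomes (0.2 mg protein/mL) using 7-ethoxyresorufin O-deethylation with 0.5 μmol/L ethoxyresorufin. Test compound at 1, 5, 10, 20 μmol/L in […] Hepes buffer was incubated at 37° C. after NADPH addition; methanol/acetonitrile=1/1 (v/v) stopped the reaction, and resorufin was read fluorescently.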

[4] = molecular target: T2, CYP2C19 (Homo sapiens, UniProt P33261); test: CYP inhibition test (CYP2C19); type: in vitro ADME; details: pooled human liver microsomes; mephenytoin 4′-hydroxylation
T2 construct: The commercially available pooled human liver microsomes are used as an enzyme resource; from tissue; host or cells: pooled human liver microsomes
T2 sequence (P33261 whole entry): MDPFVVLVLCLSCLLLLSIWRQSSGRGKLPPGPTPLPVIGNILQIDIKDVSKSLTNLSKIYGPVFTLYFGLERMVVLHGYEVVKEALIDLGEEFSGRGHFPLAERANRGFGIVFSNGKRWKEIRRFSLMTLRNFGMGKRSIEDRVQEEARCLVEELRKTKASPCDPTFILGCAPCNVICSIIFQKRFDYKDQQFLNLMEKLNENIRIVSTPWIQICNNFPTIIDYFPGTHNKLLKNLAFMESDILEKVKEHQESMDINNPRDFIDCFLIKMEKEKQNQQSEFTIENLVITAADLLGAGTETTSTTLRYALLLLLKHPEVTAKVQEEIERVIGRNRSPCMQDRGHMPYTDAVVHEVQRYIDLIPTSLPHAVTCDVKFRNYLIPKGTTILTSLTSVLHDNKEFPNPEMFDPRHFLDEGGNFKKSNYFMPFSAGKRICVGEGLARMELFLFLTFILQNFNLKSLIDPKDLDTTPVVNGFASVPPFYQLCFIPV
In short: (§1)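 Pooled human liver microsomes (0.2 mg protein/mL) with compound at 1, 5, 10 and 20 μmol/L and NADPH, at 37 °C. Marker substrates: dextromethorphan 5 μmol/L (2D6), terfenadine 1 μmol/L (3A4), S-mephenytoin 50 μmol/L (2C19), tolbutamide 100 μmol/L (2C9). Metabolites were measured by LC/MS/MS, and IC50 was derived by logistic fit of remaining activity against the DMSO control.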

[5] = molecular target: T3, human ether-a-go-go related gene (hERG) channel (Homo sapiens, UniProt Q12809); test: hERG test; type: cell-based; details: % inhibition of IKr tail peak current at 3 uM; CHO cells expressing hERG
T3 construct: expressed in transfected cells; host or cells: CHO cells
T3 sequence (Q12809 whole entry): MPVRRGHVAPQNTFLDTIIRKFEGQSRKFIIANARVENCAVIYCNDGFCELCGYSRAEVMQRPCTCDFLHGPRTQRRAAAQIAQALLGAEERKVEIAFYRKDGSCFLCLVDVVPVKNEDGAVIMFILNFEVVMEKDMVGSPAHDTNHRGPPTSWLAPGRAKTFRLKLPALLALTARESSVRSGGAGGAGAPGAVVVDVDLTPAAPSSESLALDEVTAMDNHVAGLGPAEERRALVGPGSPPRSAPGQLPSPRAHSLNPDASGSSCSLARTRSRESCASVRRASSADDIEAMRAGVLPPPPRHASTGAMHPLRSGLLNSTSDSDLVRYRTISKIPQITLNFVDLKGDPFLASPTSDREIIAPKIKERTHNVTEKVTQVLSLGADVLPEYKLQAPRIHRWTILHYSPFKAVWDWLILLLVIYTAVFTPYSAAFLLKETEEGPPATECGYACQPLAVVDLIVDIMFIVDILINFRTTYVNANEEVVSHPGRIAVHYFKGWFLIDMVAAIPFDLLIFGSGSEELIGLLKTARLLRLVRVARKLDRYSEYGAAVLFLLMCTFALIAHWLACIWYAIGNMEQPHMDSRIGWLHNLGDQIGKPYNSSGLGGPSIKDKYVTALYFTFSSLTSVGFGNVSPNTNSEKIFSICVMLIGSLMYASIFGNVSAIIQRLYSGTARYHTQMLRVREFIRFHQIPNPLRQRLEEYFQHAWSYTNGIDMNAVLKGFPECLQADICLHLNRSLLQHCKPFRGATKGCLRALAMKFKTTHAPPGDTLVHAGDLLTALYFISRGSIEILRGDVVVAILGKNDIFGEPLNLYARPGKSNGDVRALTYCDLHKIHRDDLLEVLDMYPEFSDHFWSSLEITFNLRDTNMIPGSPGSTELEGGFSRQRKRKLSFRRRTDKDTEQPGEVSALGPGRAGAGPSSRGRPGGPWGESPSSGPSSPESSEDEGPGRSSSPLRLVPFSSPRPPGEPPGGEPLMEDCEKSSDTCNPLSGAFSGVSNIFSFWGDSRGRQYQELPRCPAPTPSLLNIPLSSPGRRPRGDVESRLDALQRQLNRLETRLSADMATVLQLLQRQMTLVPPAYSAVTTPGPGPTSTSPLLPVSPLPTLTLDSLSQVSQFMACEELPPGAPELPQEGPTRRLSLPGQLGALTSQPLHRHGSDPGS
In short: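 IKr was recorded from hERG-expressing CHO cells by automated whole-cell patch clamp at a holding potential of −80 mV. A −50 mV leak step was followed by a 2 s depolarization to +20 mV and a 2 s repolarization to −50 mV, when current was measured.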

[6] = molecular target: T4, CYP3A4 (Homo sapiens, UniProt P08684); test: CYP inhibition test (CYP3A4); type: in vitro ADME; details: pooled human liver microsomes; terfenadine hydroxylation
T4 construct: The commercially available pooled human liver microsomes are used as an enzyme resource; from tissue; host or cells: pooled human liver microsomes
T4 sequence (P08684 whole entry): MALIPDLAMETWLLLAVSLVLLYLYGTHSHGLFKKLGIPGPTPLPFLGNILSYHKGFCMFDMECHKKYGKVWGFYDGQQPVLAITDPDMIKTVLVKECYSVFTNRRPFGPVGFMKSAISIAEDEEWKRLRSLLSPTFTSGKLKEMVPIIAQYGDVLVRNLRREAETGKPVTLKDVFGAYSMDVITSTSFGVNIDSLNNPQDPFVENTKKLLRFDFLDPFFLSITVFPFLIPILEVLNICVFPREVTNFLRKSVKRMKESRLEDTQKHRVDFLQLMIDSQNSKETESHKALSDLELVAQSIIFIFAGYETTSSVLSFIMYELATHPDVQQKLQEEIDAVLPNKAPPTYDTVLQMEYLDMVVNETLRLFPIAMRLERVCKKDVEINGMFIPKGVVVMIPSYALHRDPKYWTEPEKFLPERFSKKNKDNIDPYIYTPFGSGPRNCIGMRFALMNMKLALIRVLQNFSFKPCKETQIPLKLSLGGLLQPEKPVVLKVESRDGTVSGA
In short: as §1

[7] = JP 1st fluid, 25 °C, pH 1.2, simulated gastric fluid, kinetic from dmso stock, read-out: JP1
[8] = JP 2nd fluid A, 25 °C, pH 6.8, aqueous buffer, kinetic from dmso stock, read-out: JP2_μM
[9] = JP 1st fluid, pH 1.2, simulated gastric fluid, kinetic from dmso stock, read-out: JP1
[10] = JP 2nd fluid A, pH 6.8, aqueous buffer, kinetic from dmso stock, read-out: JP2_μM
[11] = solubility in JP 2nd fluid B, 1% DMSO, *2: shaken for 1 hour at room temperature, read-out: JP2_μM

Compound	remaining % [1] [%]	solubility kinetic at 16 h [2, 7] [µM]	solubility kinetic at 16 h [2, 8] [µM]	IC50 [3] [µM]	IC50 [4] [µM]	hERG_3 uM_% [5] [%]	IC50 [6] [µM]	solubility kinetic at 1 h [2, 9] [µM]	solubility kinetic at 1 h [2, 10] [µM]	solubility kinetic at 16 h [2, 11] [µM]	solubility kinetic at 1 h ([2]; JP 2nd fluid B, pH 6.8, aqueous buffer, kinetic from dmso stock, read-out: JP2_μM) [µM]
C[C@H](F)[C@H]1OC(N)=N[C@](C)(c2cc(NC(=O)c3ccc(C#N)cn3)ccc2F)[C@H]1F [Compound I-13]	101	39.6 (≈ 16.5 µg/mL)	> 50	≥ 20	≥ 20	52.8	≥ 20	–	–	–	–
C[C@@H](F)[C@H]1OC(N)=N[C@](C)(c2cc(NC(=O)c3ccc(C#N)cn3)ccc2F)[C@H]1F [Compound I-15]	104	–	–	≥ 20	≥ 20	57	≥ 20	31.9 (≈ 13.3 µg/mL)	> 50	–	–
CO[C@H]1[C@@H](CF)OC(N)=N[C@]1(C)c1cc(NC(=O)c2ccc(C#N)cn2)ccc1Cl [Compound I-18]	71.4	36 (≈ 15.5 µg/mL)	> 50	≥ 20	≥ 20	44.8	≥ 20	–	–	–	–
CO[C@H]1[C@@H](CF)OC(N)=N[C@]1(C)c1cc(NC(=O)c2cnc(OCF)cn2)ccc1Cl [Compound I-19]	69.9	37.1 (≈ 16.9 µg/mL)	> 50	≥ 20	≥ 20	18.8	≥ 20	–	–	–	–
CO[C@H]1[C@@H](CF)OC(N)=N[C@]1(C)c1cc(NC(=O)c2ccc(F)cn2)ccc1Cl [Compound I-20]	75.4	38.9 (≈ 16.5 µg/mL)	> 50	≥ 20	≥ 20	30.4	≥ 20	–	–	–	–
CO[C@H]1[C@@H](CF)OC(N)=N[C@]1(C)c1cc(NC(=O)c2cnc(OCF)cn2)ccc1F [Compound I-24]	95.5	38.8 (≈ 17 µg/mL)	> 50	≥ 20	≥ 20	6.7	≥ 20	–	–	–	–
CO[C@H]1[C@@H](CF)OC(N)=N[C@]1(C)c1cc(NC(=O)c2ccc(F)cn2)ccc1F [Compound I-25]	89.1	46.7 (≈ 19.1 µg/mL)	> 50	≥ 20	≥ 20	41.9	≥ 20	–	–	–	–
C[C@@H]1[C@@H](C(F)(F)F)OC(N)=N[C@]1(C)c1cc(NC(=O)c2ccc(C#N)cn2)ccc1F [Compound I-27]	84.7	39.7 (≈ 17.3 µg/mL)	> 50	≥ 20	≥ 20	28.8	≥ 20	–	–	–	–
C[C@H]1[C@H](C(F)(F)F)OC(N)=N[C@]1(C)c1cc(NC(=O)c2ccc(C#N)cn2)ccc1F [Compound I-29]	98.2	35 (≈ 15.2 µg/mL)	> 50	≥ 10	≥ 20	45.4	≥ 20	–	–	–	–
Cc1nc(C(=O)Nc2ccc(F)c([C@@]3(C)N=C(N)O[C@H](C(F)(F)F)[C@@H]3C)c2)co1 [Compound I-32]	94.6	> 50	> 50	≥ 20	≥ 20	15.2	≥ 20	–	–	–	–
C[C@H]1[C@@H](C(F)F)OC(N)=N[C@]1(C)c1cc(NC(=O)c2cnc(OCF)cn2)ccc1F [Compound I-33]	87.5	–	–	≥ 20	≥ 20	21.9	≥ 20	39.4 (≈ 17.4 µg/mL)	> 50	–	–
CC(F)(F)[C@H]1OC(N)=N[C@](C)(c2cc(NC(=O)c3ccc(C#N)cn3)ccc2F)[C@H]1F [Compound I-40]	106	–	–	≥ 20	≥ 20	48.4	≥ 20	> 50	> 50	–	–
COc1cnc(C(=O)Nc2ccc(F)c([C@@]3(C)N=C(N)O[C@H](C(C)(F)F)[C@@H]3F)c2)cn1 [Compound I-42]	68.2	–	–	≥ 20	≥ 20	15.5	≥ 20	> 50	> 50	–	–
C[C@]1(c2cc(NC(=O)c3cnc(OCF)cn3)ccc2F)N=C(N)OCC12CC(F)(F)C2 [Compound I-44]	86.4	34 (≈ 15.4 µg/mL)	> 50	≥ 20	≥ 20	28.9	≥ 20	–	–	–	–
C[C@]1(c2cc(NC(=O)c3ccc(F)cn3)ccc2F)N=C(N)OCC12CC(F)(F)C2 [Compound I-45]	93.5	35.8 (≈ 15.1 µg/mL)	> 50	≥ 20	≥ 20	51.6	≥ 20	–	–	–	–
C[C@H]1SC(N)=N[C@](C)(c2cc(NC(=O)c3cnc(OC(F)F)cn3)ccc2F)[C@H]1F [Compound I-47]	96.9	–	–	≥ 20	≥ 20	40.4	≥ 20	> 50	30.5 (≈ 13.5 µg/mL)	–	–
C[C@H]1SC(N)=N[C@](C)(c2cc(NC(=O)c3coc(CF)n3)ccc2F)[C@H]1F [Compound I-49]	95.4	–	–	≥ 20	≥ 20	27.2	≥ 20	> 50	> 50	–	–
C[C@H]1SC(N)=N[C@](C)(c2cc(NC(=O)c3ccc(OCF)cn3)ccc2F)[C@H]1F [Compound I-51]	76.5	–	–	≥ 20	≥ 20	39.4	≥ 10	> 50	–	>50	–
Cc1cc(C#N)cnc1C(=O)Nc1ccc(F)c([C@@]2(C)N=C(N)S[C@H](C)[C@@H]2F)c1 [Compound I-52]	60.3	–	–	≥ 20	≥ 20	55.7	≥ 20	> 50	–	–	13.9 (≈ 5.78 µg/mL)
C[C@H]1SC(N)=N[C@](C)(c2cc(NC(=O)c3ncc(OCC(F)(F)F)cn3)ccc2F)[C@H]1F [Compound I-53]	109	–	–	≥ 20	≥ 20	47.9	≥ 20	> 50	–	>50	–
CC[C@H]1SC(N)=N[C@](C)(c2cc(NC(=O)c3cnc(OCF)cn3)ccc2F)[C@H]1F [Compound I-66]	67	–	–	≥ 20	≥ 20	27.1	≥ 10	> 50	–	>50	–
CC[C@H]1SC(N)=N[C@](C)(c2cc(NC(=O)c3ccc(F)cn3)ccc2F)[C@H]1F [Compound I-70]	74.3	–	–	≥ 20	≥ 20	58.6	≥ 10	> 50	–	>50	–
